Test [1] is filed under the species Homo sapiens.
For test [2], the species on record is Homo sapiens. The source holds these as a separate data set.
Test [3] deals with Cytoplasmic FMR1-interacting protein 2 (Homo sapiens) (UniProt Q96F07).
In test [4] the target is Serine/arginine-rich splicing factor 9 (Homo sapiens) (UniProt Q13242). Note: assay method not described here.
In test [5] the target is Large ribosomal subunit protein bL21m (Homo sapiens) (UniProt Q7Z2W9). Note: assay method not described here.
In test [6] the target is Paired amphipathic helix protein Sin3a (Homo sapiens) (UniProt Q96ST3). Note: assay method not described here.
For test [7], the target named is Conserved oligomeric Golgi complex subunit 5 (Homo sapiens) (UniProt Q9UP83). Note: assay method not described here.
Test [8] concerns the target NUAK family SNF1-like kinase 2 (Homo sapiens) (UniProt Q9H093). Note: assay method not described here.
Test [9] has as its target Membrane-bound glycerophospholipid O-acyltransferase 1 (Homo sapiens) (UniProt Q6ZNC8). Note: assay method not described here.
Test [10] has as its target RNA-binding protein Musashi homolog 2 (Homo sapiens) (UniProt Q96DH6). Note: assay method not described here.
Test [11] concerns the target Small ribosomal subunit protein uS11 (Homo sapiens) (UniProt P62263). Note: assay method not described here.
Test [12] deals with Mitochondrial 2-oxodicarboxylate carrier (Homo sapiens) (UniProt Q9BQT8).
For test [13], the species on record is Homo sapiens. The source holds these as a separate data set.
For test [14], the target named is ATP-dependent RNA helicase A (Homo sapiens) (UniProt Q08211). Note: assay method not described here.
For test [15], the target named is Peroxisomal biogenesis factor 3 (Homo sapiens) (UniProt P56589). Note: assay method not described here.
The species entered for test [16] is Homo sapiens. This is another data set of the same source.
The target of test [17] is Ubiquitin-conjugating enzyme E2 G2 (Homo sapiens) (UniProt P60604). Note: assay method not described here.
Test [18] addresses MAP/microtubule affinity-regulating kinase 4 (Homo sapiens) (UniProt Q96L34).
The target of test [19] is Rho guanine nucleotide exchange factor 1 (Homo sapiens) (UniProt Q92888). Note: assay method not described here.
Test [20] addresses Protein prenyltransferase alpha subunit repeat-containing protein 1 (Homo sapiens) (UniProt Q7Z6K3).
For test [21], the target named is Signal recognition particle receptor subunit alpha (Homo sapiens) (UniProt P08240). Note: assay method not described here.
Test [22] deals with Activated RNA polymerase II transcriptional coactivator p15 (Homo sapiens) (UniProt P53999).
Test [23] has as its target Y-box-binding protein 3 (Homo sapiens) (UniProt P16989). Note: assay method not described here.
The target in test [24] is ATP-dependent RNA helicase DHX29 (Homo sapiens) (UniProt Q7Z478). Note: assay method not described here.
The species entered for test [25] is Homo sapiens. This is another data set of the same source.
Test [26] addresses Small ribosomal subunit protein uS2m (Homo sapiens) (UniProt Q9Y399).
In test [27] the target is Small ribosomal subunit protein mS40 (Homo sapiens) (UniProt Q9Y676). Note: assay method not described here.
Test [28] concerns the target Peptidyl-prolyl cis-trans isomerase FKBP3 (Homo sapiens) (UniProt Q00688). Note: assay method not described here.
Test [29] concerns the target Ragulator complex protein LAMTOR3 (Homo sapiens) (UniProt Q9UHA4). Note: assay method not described here.
The target in test [30] is Lanosterol synthase (Homo sapiens) (UniProt P48449). Note: assay method not described here.
Test [31] addresses Complement component 1 Q subcomponent-binding protein, mitochondrial (Homo sapiens) (UniProt Q07021).
Test [32] deals with Conserved oligomeric Golgi complex subunit 2 (Homo sapiens) (UniProt Q14746).
Test [33] has as its target SPATS2-like protein (Homo sapiens) (UniProt Q9NUQ6). Note: assay method not described here.
Test [34] deals with Exportin-1 (Homo sapiens) (UniProt O14980).
For test [35], the target named is DNA replication licensing factor MCM3 (Homo sapiens) (UniProt P25205). Note: assay method not described here.
The species named for test [36] is Homo sapiens. The source holds these as a separate data set.
Test [37] has as its target Methylcrotonoyl-CoA carboxylase beta chain, mitochondrial (Homo sapiens) (UniProt Q9HCC0). Note: assay method not described here.
The target of test [38] is F-actin-capping protein subunit alpha-1 (Homo sapiens) (UniProt P52907). Note: assay method not described here.
Test [39] addresses Transaldolase (Homo sapiens) (UniProt P37837).
Test [40] has as its target Calcyclin-binding protein (Homo sapiens) (UniProt Q9HB71). Note: assay method not described here.
In test [41] the target is RNA-splicing ligase RtcB homolog (Homo sapiens) (UniProt Q9Y3I0). Note: assay method not described here.
For test [42], the target named is Dolichyl-diphosphooligosaccharide--protein glycosyltransferase subunit MAGT1 (Homo sapiens) (UniProt Q9H0U3). Note: assay method not described here.
Test [43] concerns the target Histone H1.2 (Homo sapiens) (UniProt P16403). Note: assay method not described here.
Test [44] addresses Proteasome subunit alpha type-3 (Homo sapiens) (UniProt P25788).
Test [45] deals with Histone-arginine methyltransferase CARM1 (Homo sapiens) (UniProt Q86X55).
A further test addresses Ephrin type-A receptor 2 (Homo sapiens, UniProt P29317). The experiment in a line: Binding affinity to recombinant human EPHA2 (D596 to G900 residues) expressed in insect cells incubated for 30 mins by MST assay. Also on record: species or system Insect cell.
Test [46] concerns the target ATP synthase peripheral stalk subunit OSCP, mitochondrial (Homo sapiens) (UniProt P48047). Note: assay method not described here.

One may read the Kd as the free concentration of one partner at which half of the binding sites on the other are occupied at equilibrium, for simple one-to-one binding.
Throughout, for ED50: assay method not described here.

Sequence of SPATS2-like protein (Homo sapiens) (Q9NUQ6 whole entry): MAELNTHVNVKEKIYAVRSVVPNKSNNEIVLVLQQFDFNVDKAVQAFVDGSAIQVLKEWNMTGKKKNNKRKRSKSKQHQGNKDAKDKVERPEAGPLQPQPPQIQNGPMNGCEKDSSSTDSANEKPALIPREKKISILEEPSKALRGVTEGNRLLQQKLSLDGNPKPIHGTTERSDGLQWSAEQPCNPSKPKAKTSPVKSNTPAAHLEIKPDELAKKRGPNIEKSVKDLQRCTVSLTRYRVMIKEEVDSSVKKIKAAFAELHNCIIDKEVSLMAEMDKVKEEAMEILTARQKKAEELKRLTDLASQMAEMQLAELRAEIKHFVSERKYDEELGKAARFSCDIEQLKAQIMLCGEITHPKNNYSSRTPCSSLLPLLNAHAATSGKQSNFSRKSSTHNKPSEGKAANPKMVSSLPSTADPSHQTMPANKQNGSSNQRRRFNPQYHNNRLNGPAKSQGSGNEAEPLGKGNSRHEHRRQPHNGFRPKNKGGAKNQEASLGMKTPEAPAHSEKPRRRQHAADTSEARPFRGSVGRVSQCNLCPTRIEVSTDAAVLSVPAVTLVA
Sequence of Paired amphipathic helix protein Sin3a (Homo sapiens) (Q96ST3 whole entry): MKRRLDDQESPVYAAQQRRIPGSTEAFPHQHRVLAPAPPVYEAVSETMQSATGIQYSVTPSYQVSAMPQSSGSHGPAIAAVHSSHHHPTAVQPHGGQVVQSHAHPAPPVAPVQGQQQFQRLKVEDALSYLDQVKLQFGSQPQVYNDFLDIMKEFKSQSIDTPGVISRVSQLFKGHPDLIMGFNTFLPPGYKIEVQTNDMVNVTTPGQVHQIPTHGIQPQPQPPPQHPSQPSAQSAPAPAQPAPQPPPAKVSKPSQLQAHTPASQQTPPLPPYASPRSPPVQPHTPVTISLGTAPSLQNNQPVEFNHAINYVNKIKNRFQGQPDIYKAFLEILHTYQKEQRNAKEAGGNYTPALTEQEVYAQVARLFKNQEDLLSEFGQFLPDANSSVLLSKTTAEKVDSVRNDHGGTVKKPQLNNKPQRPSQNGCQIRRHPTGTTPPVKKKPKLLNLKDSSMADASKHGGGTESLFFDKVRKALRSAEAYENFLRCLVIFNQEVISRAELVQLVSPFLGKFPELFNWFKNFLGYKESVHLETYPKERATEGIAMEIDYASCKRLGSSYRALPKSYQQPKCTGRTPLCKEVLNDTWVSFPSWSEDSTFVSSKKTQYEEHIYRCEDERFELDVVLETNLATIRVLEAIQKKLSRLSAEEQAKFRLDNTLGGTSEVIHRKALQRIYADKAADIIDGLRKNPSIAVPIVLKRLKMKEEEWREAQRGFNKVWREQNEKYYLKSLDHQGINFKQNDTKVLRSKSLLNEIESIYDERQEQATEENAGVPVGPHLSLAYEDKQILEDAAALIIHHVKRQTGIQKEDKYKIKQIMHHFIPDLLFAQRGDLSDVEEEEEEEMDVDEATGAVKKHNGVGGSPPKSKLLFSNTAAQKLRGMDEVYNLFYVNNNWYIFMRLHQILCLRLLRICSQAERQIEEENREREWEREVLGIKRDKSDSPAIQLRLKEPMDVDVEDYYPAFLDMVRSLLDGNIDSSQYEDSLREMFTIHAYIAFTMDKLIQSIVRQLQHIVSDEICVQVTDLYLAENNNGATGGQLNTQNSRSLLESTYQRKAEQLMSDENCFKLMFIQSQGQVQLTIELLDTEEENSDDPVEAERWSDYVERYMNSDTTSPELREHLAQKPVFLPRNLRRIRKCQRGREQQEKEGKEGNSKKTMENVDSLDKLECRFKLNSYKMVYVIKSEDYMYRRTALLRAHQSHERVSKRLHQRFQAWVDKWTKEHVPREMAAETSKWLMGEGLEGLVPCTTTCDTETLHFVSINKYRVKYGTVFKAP
Sequence of Exportin-1 (Homo sapiens) (O14980 whole entry): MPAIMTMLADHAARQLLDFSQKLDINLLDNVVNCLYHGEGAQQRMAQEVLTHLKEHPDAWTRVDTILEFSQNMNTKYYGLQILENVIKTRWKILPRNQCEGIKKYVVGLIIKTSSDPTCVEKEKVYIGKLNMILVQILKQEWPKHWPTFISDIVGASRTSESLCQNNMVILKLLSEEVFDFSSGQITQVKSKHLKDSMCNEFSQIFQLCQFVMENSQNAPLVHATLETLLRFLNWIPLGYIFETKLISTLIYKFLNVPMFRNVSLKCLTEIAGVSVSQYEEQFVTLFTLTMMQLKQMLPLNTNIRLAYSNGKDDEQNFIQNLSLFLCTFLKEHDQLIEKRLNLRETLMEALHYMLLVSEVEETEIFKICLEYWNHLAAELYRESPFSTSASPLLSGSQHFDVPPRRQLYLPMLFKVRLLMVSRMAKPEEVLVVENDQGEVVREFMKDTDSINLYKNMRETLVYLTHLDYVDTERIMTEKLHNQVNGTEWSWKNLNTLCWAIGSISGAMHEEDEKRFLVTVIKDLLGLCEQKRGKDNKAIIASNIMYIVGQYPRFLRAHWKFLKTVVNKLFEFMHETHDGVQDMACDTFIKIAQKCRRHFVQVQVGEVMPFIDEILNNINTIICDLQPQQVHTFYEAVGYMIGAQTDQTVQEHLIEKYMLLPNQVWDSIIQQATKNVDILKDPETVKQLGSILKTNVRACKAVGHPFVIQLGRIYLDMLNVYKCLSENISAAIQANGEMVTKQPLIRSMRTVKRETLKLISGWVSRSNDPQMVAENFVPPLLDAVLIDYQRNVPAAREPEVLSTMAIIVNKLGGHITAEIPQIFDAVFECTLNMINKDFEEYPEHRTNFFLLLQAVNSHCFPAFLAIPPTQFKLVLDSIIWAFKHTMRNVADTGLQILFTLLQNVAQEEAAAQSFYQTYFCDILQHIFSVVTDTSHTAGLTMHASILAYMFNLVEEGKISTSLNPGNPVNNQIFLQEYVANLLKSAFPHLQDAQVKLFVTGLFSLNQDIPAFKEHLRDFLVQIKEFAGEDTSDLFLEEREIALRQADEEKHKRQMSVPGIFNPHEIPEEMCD
Sequence of Signal recognition particle receptor subunit alpha (Homo sapiens) (P08240 whole entry): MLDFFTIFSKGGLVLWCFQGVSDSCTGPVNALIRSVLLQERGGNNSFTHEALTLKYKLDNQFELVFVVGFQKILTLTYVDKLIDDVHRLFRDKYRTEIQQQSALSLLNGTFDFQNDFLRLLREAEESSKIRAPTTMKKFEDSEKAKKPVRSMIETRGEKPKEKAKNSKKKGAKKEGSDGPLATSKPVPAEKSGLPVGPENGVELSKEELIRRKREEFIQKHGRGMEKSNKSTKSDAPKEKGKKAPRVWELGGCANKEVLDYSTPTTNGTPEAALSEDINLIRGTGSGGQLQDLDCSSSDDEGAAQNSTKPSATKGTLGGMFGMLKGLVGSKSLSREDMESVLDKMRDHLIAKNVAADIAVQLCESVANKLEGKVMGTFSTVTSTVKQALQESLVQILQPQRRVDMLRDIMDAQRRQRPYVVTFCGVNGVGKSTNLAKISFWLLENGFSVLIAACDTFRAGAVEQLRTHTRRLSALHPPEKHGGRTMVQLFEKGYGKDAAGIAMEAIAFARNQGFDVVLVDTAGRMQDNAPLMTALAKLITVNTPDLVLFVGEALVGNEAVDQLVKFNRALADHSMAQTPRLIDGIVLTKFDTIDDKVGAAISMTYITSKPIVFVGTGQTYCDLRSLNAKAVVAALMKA
Sequence of Ubiquitin-conjugating enzyme E2 G2 (Homo sapiens) (P60604 whole entry): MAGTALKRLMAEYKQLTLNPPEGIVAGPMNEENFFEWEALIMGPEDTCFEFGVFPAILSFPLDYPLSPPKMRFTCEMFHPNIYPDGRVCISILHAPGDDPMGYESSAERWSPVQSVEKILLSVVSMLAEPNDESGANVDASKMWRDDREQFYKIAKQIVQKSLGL
Sequence of Serine/arginine-rich splicing factor 9 (Homo sapiens) (Q13242 whole entry): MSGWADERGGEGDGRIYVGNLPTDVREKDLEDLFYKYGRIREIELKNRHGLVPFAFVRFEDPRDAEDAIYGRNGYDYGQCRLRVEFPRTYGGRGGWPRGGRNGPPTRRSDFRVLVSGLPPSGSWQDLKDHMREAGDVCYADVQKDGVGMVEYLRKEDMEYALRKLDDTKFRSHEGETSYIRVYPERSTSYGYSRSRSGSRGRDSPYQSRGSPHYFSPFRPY
Sequence of Mitochondrial 2-oxodicarboxylate carrier (Homo sapiens) (Q9BQT8 whole entry): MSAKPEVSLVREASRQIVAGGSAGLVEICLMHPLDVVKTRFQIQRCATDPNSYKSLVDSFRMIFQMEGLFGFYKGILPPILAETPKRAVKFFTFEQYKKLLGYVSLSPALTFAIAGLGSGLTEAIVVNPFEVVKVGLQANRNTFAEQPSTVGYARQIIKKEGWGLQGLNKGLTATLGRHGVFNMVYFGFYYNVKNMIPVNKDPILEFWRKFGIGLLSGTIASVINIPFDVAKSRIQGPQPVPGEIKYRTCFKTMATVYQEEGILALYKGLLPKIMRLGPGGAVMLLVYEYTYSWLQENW
Sequence of Calcyclin-binding protein (Homo sapiens) (Q9HB71 whole entry): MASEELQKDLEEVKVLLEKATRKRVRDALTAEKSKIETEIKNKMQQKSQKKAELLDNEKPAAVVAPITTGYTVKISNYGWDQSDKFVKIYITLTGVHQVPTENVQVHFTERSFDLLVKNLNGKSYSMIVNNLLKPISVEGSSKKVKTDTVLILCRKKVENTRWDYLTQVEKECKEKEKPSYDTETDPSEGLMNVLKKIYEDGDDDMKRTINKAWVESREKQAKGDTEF
Sequence of Proteasome subunit alpha type-3 (Homo sapiens) (P25788 whole entry): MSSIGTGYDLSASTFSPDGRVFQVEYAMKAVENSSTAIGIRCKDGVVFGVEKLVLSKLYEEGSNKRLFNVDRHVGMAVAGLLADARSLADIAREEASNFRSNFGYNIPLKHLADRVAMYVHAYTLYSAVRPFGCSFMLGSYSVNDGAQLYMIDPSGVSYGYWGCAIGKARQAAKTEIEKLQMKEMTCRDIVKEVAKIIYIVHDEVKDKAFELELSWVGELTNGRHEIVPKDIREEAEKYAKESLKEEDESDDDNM
Sequence of Complement component 1 Q subcomponent-binding protein, mitochondrial (Homo sapiens) (Q07021 whole entry): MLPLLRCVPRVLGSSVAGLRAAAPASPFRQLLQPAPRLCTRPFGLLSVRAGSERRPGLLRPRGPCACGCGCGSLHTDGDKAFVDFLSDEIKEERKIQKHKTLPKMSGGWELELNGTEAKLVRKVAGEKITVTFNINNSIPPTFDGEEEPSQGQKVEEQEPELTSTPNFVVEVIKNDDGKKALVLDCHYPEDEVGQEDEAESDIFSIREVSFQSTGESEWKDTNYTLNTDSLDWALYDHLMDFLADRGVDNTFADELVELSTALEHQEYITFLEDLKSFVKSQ

For the compound `Cc1ccc(C(=O)Nc2cccc(C(F)(F)F)c2)cc1Nc1nc(-c2cccnc2)nc2c1cnn2C`, the ED50 worked out at 723 nM in the test listed under Homo sapiens [1]; 4.42 µM in the test filed under Homo sapiens [2]; 6.95 µM in [3]; 12.4 nM in test [4]; 5.95 µM in [5]; 47.7 µM in [6]. Besides, the ED50 is 7.29 µM in test [7]; 1310 nM in test [8]; 900 nM in test [9]; 1.24 nM in test [10]; 5.3 µM in [11]; 120 µM in [12]. Further, the ED50 in the test listed under Homo sapiens [13] came to 15.5 µM; in test [14] it was 112 nM; in [15], 11.5 nM; in the test filed under Homo sapiens [16], 1.59 mM; in test [17] it was 4.16 nM; in test [18] it was 98.6 nM. Moreover, the ED50 amounted to 1700 nM in test [19]; 15.5 nM in test [20]; 39.4 µM in [21]; 1.09 mM in [22]; 15.4 µM in test [23]; 15.3 µM in test [24]. Further, the ED50 in the test filed under Homo sapiens [25] is 192 nM; in test [26] it was 4.88 µM; in test [27] it was 15.6 µM; in [28], 12 µM; in test [29] it was 816 nM; in test [30], 112 µM. Further, the ED50 in [31] turned out to be 34.8 nM; in test [32] it was 3.45 µM; in [33], 41.5 nM.

For `Cc1ccc(C(=O)Nc2cccc(C(F)(F)F)c2)cc1Nc1nc(-c2cccnc2)nc2nn(C)cc12`, the ED50 in [34] amounted to 4.43 µM; in [35], 28.9 nM; in the test filed under Homo sapiens [36], 5.99 nM; in test [37], 102 nM; in test [38] it was 1490 nM; in test [39], 359 nM. Further, the ED50 in [40] was 506 nM; in [41] it was 38.3 nM; in test [42] it was 686 nM; in test [43], 8.94 nM; in [44], 8.4 nM; in test [45] it was 113 nM. The compound further had an ED50 in [46] of 20.6 nM. Also, the Kd at Ephrin type-A receptor 2 is 73 nM.

Source of the values: ChEMBL document CHEMBL5649169 (ChemMedChem, 2018).
